Source: PubChem BioAssay (NCI)
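These data come from cells grown in 96-well plates and exposed to compound for 48 hours at five concentrations. GI50 is the concentration that inhibits growth by half. TGI marks complete inhibition of growth.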

Assays:
Assay in all cases: NCI tumour cell line growth inhibition, 48 h
RXF-631 renal = tested on: RXF-631 renal
DMS 273 small cell lung = tested on: DMS 273 small cell lung
DLD-1 colon = tested on: DLD-1 colon
M19-MEL melanoma = tested on: M19-MEL melanoma
XF 498 CNS = tested on: XF 498 CNS
SNB-78 CNS = tested on: SNB-78 CNS

Structure (SMILES) | TGI (RXF-631 renal) [µM] | TGI (DMS 273 small cell lung) [µM] | TGI (DLD-1 colon) [µM] | TGI (M19-MEL melanoma) [µM] | GI50 (XF 498 CNS) [µM] | TGI (XF 498 CNS) [µM] | GI50 (M19-MEL melanoma) [µM] | TGI (SNB-78 CNS) [µM]
Nc1nc(=O)n(CC(O)CO)s1 (stereo unspecified) | > 100 | > 100 | > 100 | > 100 |  |  |  | 
N#C[S-].[Ce+3].c1cnc2c(c1)ccc1cccnc12.c1cnc2c(c1)ccc1cccnc12.c1cnc2c(c1)ccc1cccnc12 |  |  |  | 3.31 | 3.27 | 8.95 | 0.555 | 
O=C(NNC(=O)c1nsc2ccccc12)c1ccc(Cl)cc1 |  | 25.1 |  | 39.1 |  |  |  | 61.7
Cc1ccc(SSCCCCCS(=O)O)cc1 | > 100 |  | > 100 | > 100 |  | 49.6 |  | 82.1
